According to US20120225062A1 (priority 2011, published 2012):

Assays:
[1] = tested on: KMS11 (human myeloma cell line); test: Cell Proliferation Assay (CellTiter-Glo, 3 days); assay type: cell-based; conditions: KMS-11, 72 h, KMS11-luc cells
Outline: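 EC50 from CellTiter-Glo luminescence after 3-day, 37° C compound treatment of KMS11 cells seeded at 2000 per well in IMDM plus 10% FBS.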

Pim 1 = Pim 1 (Homo sapiens, UniProt P11309); test: Pim 1 AlphaScreen assay (high ATP)
Pim 2 = Pim 2 (Homo sapiens, UniProt Q9P1W9); test: Pim 2 AlphaScreen assay (high ATP)
Pim 3 = Pim 3 (Homo sapiens, UniProt Q86V86); test: Pim 3 AlphaScreen assay (high ATP)

Chain of Pim 1 (P11309 whole entry): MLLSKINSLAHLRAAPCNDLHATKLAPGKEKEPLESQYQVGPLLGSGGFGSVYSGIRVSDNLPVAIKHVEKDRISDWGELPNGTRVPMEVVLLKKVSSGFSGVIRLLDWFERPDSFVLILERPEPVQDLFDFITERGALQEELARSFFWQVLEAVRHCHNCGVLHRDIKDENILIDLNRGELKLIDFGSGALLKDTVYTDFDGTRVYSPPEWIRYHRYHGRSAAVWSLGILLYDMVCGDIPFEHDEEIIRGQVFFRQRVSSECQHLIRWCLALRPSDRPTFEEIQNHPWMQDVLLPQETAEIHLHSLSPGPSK
Chain of Pim 2 (Q9P1W9 whole entry): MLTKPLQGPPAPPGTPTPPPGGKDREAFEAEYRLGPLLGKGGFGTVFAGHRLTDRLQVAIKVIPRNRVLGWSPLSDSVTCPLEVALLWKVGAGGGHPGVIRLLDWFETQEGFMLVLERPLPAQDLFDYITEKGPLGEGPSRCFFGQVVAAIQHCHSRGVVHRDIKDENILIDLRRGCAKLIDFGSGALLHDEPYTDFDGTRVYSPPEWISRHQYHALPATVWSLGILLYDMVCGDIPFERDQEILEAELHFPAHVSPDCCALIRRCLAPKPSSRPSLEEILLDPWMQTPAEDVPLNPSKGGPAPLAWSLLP

Question: `COC(C)(C)c1cc(F)c(-c2nc(C(=O)Nc3cnccc3[C@@H]3C[C@H](C)C[C@H](N)C3)ccc2F)c(F)c1` [Example 49, N-(4-((1R,3S,5S)-3-amino-5-methylcyclohexyl)pyridin-3-yl)-6-(2,6-difluoro-4-(2-methoxypropan-2-yl)phenyl)-5-fluoropicolinamide] was tested. Which EC50 [1] did it give?
Answer: 53 nM

Question: And the IC50 (Pim 1)?
Answer: 0.03 nM

Question: And the IC50 (Pim 2)?
Answer: 2.67 nM

Question: What about the IC50 (Pim 3) of the same molecule?
Answer: 1.86 nM

Question: `C[C@@H]1C[C@H](N)C[C@H](c2ccncc2NC(=O)c2ccc(F)c(-c3c(F)ccc(OC[C@H](O)CO)c3F)n2)C1` [Example 9, N-(4-((1R,3S,5S)-3-amino-5-methylcyclohexyl)pyridin-3-yl)-6-(3-((R)-2,3-dihydroxypropoxy)-2,6-difluorophenyl)-5-fluoropicolinamide] was tested. Which EC50 [1] did it give?
Answer: 72 nM

Question: What about the IC50 (Pim 1) of the same molecule?
Answer: 0.04 nM

Question: And the IC50 (Pim 2)?
Answer: 3.97 nM

Question: What about the IC50 (Pim 3) of the same molecule?
Answer: 1.09 nM

Question: What does the source list for `C[C@H]1C[C@@H](c2ccncc2NC(=O)c2ccc(F)c(-c3c(F)cc(C4(F)COC4)cc3F)n2)C[C@@H](N)[C@H]1O` [Example 137, N-(4-((1R,3R,4S,5S)-3-amino-4-hydroxy-5-methylcyclohexyl)pyridin-3-yl)-6-(2,6-difluoro-4-(3-fluorooxetan-3-yl)phenyl)-5-fluoropicolinamide]?
Answer: EC50 [1]: 549 nM; IC50 (Pim 1): 0.08 nM; IC50 (Pim 2): 10.3 nM; IC50 (Pim 3): 6.9 nM

Question: For `C[C@H]1CN(c2ccncc2NC(=O)c2ccc(F)c(-c3c(F)cc(C4(O)COC4)cc3F)n2)C[C@@H](N)[C@@H]1O` [Example 89, N-(4-((3R,4R,5S)-3-amino-4-hydroxy-5-methylpiperidin-1-yl)pyridin-3-yl)-6-(2,6-difluoro-4-(3-hydroxyoxetan-3-yl)phenyl)-5-fluoropicolinamide], which EC50 [1] is on record?
Answer: 21 nM

Question: And the IC50 (Pim 1)?
Answer: 0.01 nM

Question: What about the IC50 (Pim 2) of the same molecule?
Answer: 0.67 nM

Question: And the IC50 (Pim 3)?
Answer: 0.26 nM

Question: Which EC50 [1] does the source give for `C[C@H]1CN(c2ccncc2NC(=O)c2ccc(F)c(-c3c(F)cc(O[C@H]4CCCOC4)cc3F)n2)C[C@@H](N)[C@@H]1O` [Example 106, N-(4-((3R,4R,5S)-3-amino-4-hydroxy-5-methylpiperidin-1-yl)pyridin-3-yl)-6-(2,6-difluoro-4-((S)-tetrahydro-2H-pyran-3-yloxy)phenyl)-5-fluoropicolinamide] here?
Answer: 154 nM

Question: And the IC50 (Pim 1)?
Answer: 0.01 nM

Question: And the IC50 (Pim 2)?
Answer: 0.52 nM

Question: And the IC50 (Pim 3)?
Answer: 0.13 nM

Question: What does the source list for `C[C@@H]1C[C@H](N)C[C@H](c2ccncc2NC(=O)c2ccc(F)c(-c3c(F)cc(C4(O)CC4)cc3F)n2)C1` [Example 44, N-(4-((1R,3S,5S)-3-amino-5-methylcyclohexyl)pyridin-3-yl)-6-(2,6-difluoro-4-(1-hydroxycyclopropyl)phenyl)-5-fluoropicolinamide]?
Answer: EC50 [1]: 18 nM; IC50 (Pim 1): 0.01 nM; IC50 (Pim 2): 2.03 nM; IC50 (Pim 3): 0.77 nM

Question: `COC(C)(C)COc1cc(F)c(-c2nc(C(=O)Nc3cnccc3[C@@H]3C[C@H](C)C[C@H](N)C3)ccc2F)c(F)c1` [Example 46, N-(4-((1R,3S,5S)-3-amino-5-methylcyclohexyl)pyridin-3-yl)-6-(2,6-difluoro-4-(2-methoxy-2-methylpropoxy)phenyl)-5-fluoropicolinamide] was tested. Which EC50 [1] did it give?
Answer: 84 nM

Question: What about the IC50 (Pim 1) of the same molecule?
Answer: 0.02 nM

Question: What about the IC50 (Pim 2) of the same molecule?
Answer: 2.77 nM

Question: And the IC50 (Pim 3)?
Answer: 0.85 nM

Question: `C[C@H]1C[C@@H](c2ccncc2NC(=O)c2ccc(F)c(-c3c(F)ccc(OCCO)c3F)n2)C[C@@H](N)[C@@H]1O` [Example 30, N-(4-((1R,3R,4R,5S)-3-amino-4-hydroxy-5-methylcyclohexyl)pyridin-3-yl)-6-(2,6-difluoro-3-(2-hydroxyethoxy)phenyl)-5-fluoropicolinamide] was tested. Which EC50 [1] did it give?
Answer: 186 nM

Question: And the IC50 (Pim 1)?
Answer: 0.07 nM

Question: What about the IC50 (Pim 2) of the same molecule?
Answer: 11.4 nM

Question: And the IC50 (Pim 3)?
Answer: 2.25 nM

Question: How did the EC50 [1] turn out when `COC1(c2cc(F)c(-c3nc(C(=O)Nc4cnccc4[C@@H]4C[C@H](C)C[C@H](N)C4)ccc3F)c(F)c2)COC1` [Example 53, N-(4-((1R,3S,5S)-3-amino-5-methylcyclohexyl)pyridin-3-yl)-6-(2,6-difluoro-4-(3-methoxyoxetan-3-yl)phenyl)-5-fluoropicolinamide] was run?
Answer: 32 nM

Question: What about the IC50 (Pim 1) of the same molecule?
Answer: 0.05 nM

Question: And the IC50 (Pim 2)?
Answer: 2.56 nM

Question: What about the IC50 (Pim 3) of the same molecule?
Answer: 4.05 nM

Question: How did the EC50 [1] turn out when `Cc1noc(C)c1-c1cc(F)c(-c2nc(C(=O)Nc3cnccc3[C@@H]3C[C@H](C)C[C@H](N)C3)ccc2F)c(F)c1` [Example 174, N-(4-((1R,3S,5S)-3-amino-5-methylcyclohexyl)pyridin-3-yl)-6-(4-(3,5-dimethylisoxazol-4-yl)-2,6-difluorophenyl)-5-fluoropicolinamide] was run?
Answer: 1020 nM

Question: What about the IC50 (Pim 1) of the same molecule?
Answer: 0.08 nM

Question: What about the IC50 (Pim 2) of the same molecule?
Answer: 30 nM

Question: What about the IC50 (Pim 3) of the same molecule?
Answer: 10.1 nM

Question: Which results are given for `COCCOc1cc(F)c(-c2nc(C(=O)Nc3cnccc3N3C[C@@H](N)[C@H](O)[C@@H](C)C3)ccc2F)c(F)c1` [Example 22, N-(4-((3R,4R,5S)-3-amino-4-hydroxy-5-methylpiperidin-1-yl)pyridin-3-yl)-6-(2,6-difluoro-4-(2-methoxyethoxy)phenyl)-5-fluoropicolinamide]?
Answer: EC50 [1]: 10 nM; IC50 (Pim 1): 0.03 nM; IC50 (Pim 2): 1.5 nM; IC50 (Pim 3): 0.45 nM

Question: Which results are given for `COC1(c2cc(F)c(-c3nc(C(=O)Nc4cnccc4N4C[C@@H](N)[C@H](O)[C@@H](C)C4)ccc3F)c(F)c2)COC1` [Example 88, N-(4-((3R,4R,5S)-3-amino-4-hydroxy-5-methylpiperidin-1-yl)pyridin-3-yl)-6-(2,6-difluoro-4-(3-methoxyoxetan-3-yl)phenyl)-5-fluoropicolinamide]?
Answer: EC50 [1]: 17 nM; IC50 (Pim 1): 0.02 nM; IC50 (Pim 2): 1.18 nM; IC50 (Pim 3): 0.69 nM

Question: Which EC50 [1] does the source give for `CCOCc1cc(F)c(-c2nc(C(=O)Nc3cnccc3[C@H]3C[C@@H](N)[C@@H](O)[C@@H](C)C3)ccc2F)c(F)c1` [Example 134, N-(4-((1R,3R,4S,5S)-3-amino-4-hydroxy-5-methylcyclohexyl)pyridin-3-yl)-6-(4-(ethoxymethyl)-2,6-difluorophenyl)-5-fluoropicolinamide] here?
Answer: 228 nM

Question: And the IC50 (Pim 1)?
Answer: 0.13 nM

Question: What about the IC50 (Pim 2) of the same molecule?
Answer: 9.57 nM

Question: What about the IC50 (Pim 3) of the same molecule?
Answer: 4.89 nM

Question: For `COCCOc1ccc(F)c(-c2nc(C(=O)Nc3cnccc3N3C[C@@H](N)[C@H](O)[C@@H](C)C3)ccc2F)c1F` [Example 17, N-(4-((3R,4R,5S)-3-amino-4-hydroxy-5-methylpiperidin-1-yl)pyridin-3-yl)-6-(2,6-difluoro-3-(2-methoxyethoxy)phenyl)-5-fluoropicolinamide], which EC50 [1] is on record?
Answer: 13 nM

Question: And the IC50 (Pim 1)?
Answer: 0.03 nM

Question: What about the IC50 (Pim 2) of the same molecule?
Answer: 1.92 nM

Question: What about the IC50 (Pim 3) of the same molecule?
Answer: 0.35 nM

Question: `C[C@@H]1C[C@H](N)C[C@H](c2ccncc2NC(=O)c2ccc(F)c(-c3c(F)cc(C4(O)CCCC4)cc3F)n2)C1` [Example 163, N-(4-((1R,3S,5S)-3-amino-5-methylcyclohexyl)pyridin-3-yl)-6-(2,6-difluoro-4-(1-hydroxycyclopentyl)phenyl)-5-fluoropicolinamide] was tested. Which EC50 [1] did it give?
Answer: 33 nM

Question: What about the IC50 (Pim 1) of the same molecule?
Answer: 0.01 nM

Question: And the IC50 (Pim 2)?
Answer: 0.93 nM

Question: And the IC50 (Pim 3)?
Answer: 0.17 nM

Question: `C[C@H]1C[C@@H](c2ccncc2NC(=O)c2ccc(F)c(-c3c(F)cc(OC4CCOCC4)cc3F)n2)C[C@@H](N)[C@H]1O` [Example 140, N-(4-((1R,3R,4S,5S)-3-amino-4-hydroxy-5-methylcyclohexyl)pyridin-3-yl)-6-(2,6-difluoro-4-(tetrahydro-2H-pyran-4-yloxy)phenyl)-5-fluoropicolinamide] was tested. Which EC50 [1] did it give?
Answer: 863 nM

Question: And the IC50 (Pim 1)?
Answer: 0.04 nM

Question: And the IC50 (Pim 2)?
Answer: 6.05 nM

Question: And the IC50 (Pim 3)?
Answer: 1.71 nM

Question: With `CC(C)Oc1cc(F)c(-c2nc(C(=O)Nc3cnccc3[C@H]3C[C@@H](N)[C@H](O)[C@@H](C)C3)c(N)cc2F)c(F)c1` [Example 97] as the molecule, how does the EC50 [1] read?
Answer: 69 nM

Question: What about the IC50 (Pim 1) of the same molecule?
Answer: 0.02 nM

Question: What about the IC50 (Pim 2) of the same molecule?
Answer: 1.55 nM

Question: And the IC50 (Pim 3)?
Answer: 0.37 nM

Question: How did the EC50 [1] turn out when `N[C@H]1CCC[C@@H](c2ccncc2NC(=O)c2ccc(F)c(-c3c(F)cc(COC4CCOCC4)cc3F)n2)C1` [Example 154, N-(4-((1R,3S)-3-aminocyclohexyl)pyridin-3-yl)-6-(2,6-difluoro-4-((tetrahydro-2H-pyran-4-yloxy)methyl)phenyl)-5-fluoropicolinamide] was run?
Answer: 492 nM

Question: And the IC50 (Pim 1)?
Answer: 0.1 nM

Question: And the IC50 (Pim 2)?
Answer: 32 nM

Question: And the IC50 (Pim 3)?
Answer: 5.22 nM

Question: What does the source list for `C[C@@H]1C[C@H](N)C[C@H](c2ccncc2NC(=O)c2ccc(F)c(-c3c(F)cc(OC4COC4)cc3F)n2)C1` [Example 48, N-(4-((1R,3S,5S)-3-amino-5-methylcyclohexyl)pyridin-3-yl)-6-(2,6-difluoro-4-(oxetan-3-yloxy)phenyl)-5-fluoropicolinamide]?
Answer: EC50 [1]: 84 nM; IC50 (Pim 1): 0.08 nM; IC50 (Pim 2): 4.16 nM; IC50 (Pim 3): 0.24 nM

Question: How did the EC50 [1] turn out when `CCOC(C)(C)c1cc(F)c(-c2nc(C(=O)Nc3cnccc3N3C[C@@H](N)[C@H](O)[C@@H](C)C3)ccc2F)c(F)c1` [Example 201, N-(4-((3R,4R,5S)-3-amino-4-hydroxy-5-methylpiperidin-1-yl)pyridin-3-yl)-6-(4-(2-ethoxypropan-2-yl)-2,6-difluorophenyl)-5-fluoropicolinamide] was run?
Answer: 239 nM

Question: What about the IC50 (Pim 1) of the same molecule?
Answer: 0.01 nM

Question: And the IC50 (Pim 2)?
Answer: 0.98 nM

Question: What about the IC50 (Pim 3) of the same molecule?
Answer: 0.55 nM
